Converted amounts (≈) assume the structure as drawn.
Key:
[1] = system: Human immunodeficiency virus 1; assay: Antiviral activity against HIV1 at 1.0 uM; type: functional
[2] = system: HOS; assay: Toxicity in CD4 expressing HOS cells at 10 uM; type: cell-based; settings: human
[3] = system: Human immunodeficiency virus 1; assay: Antiviral activity against HIV1; type: functional, organism-based
[4] = Therapeutic index, ratio of IC50 for HOS cells to EC50 for human HIV1; type: cell-based; settings: read-out: Ratio IC50/EC50
[5] = system: Mycobacterium tuberculosis; assay: Antimicrobial activity against Mycobacterium tuberculosis; type: functional

Structure (SMILES)	inhibition at 1 µM [1]	Activity [2]	other results
CC1CC(=O)c2c(c3c(c4c(-c5ccc([N+](=O)[O-])cc5)cc(=O)oc24)OC(C)(C)C=C3)O1 (stereo unspecified)	51.9%	–	–
CCCCc1cc(=O)oc2c3c(c4c(c12)OC(c1ccccc1)C=C4)OC(C)CC3=O (stereo unspecified)	96.4%	10%	–
CCCCC1C=Cc2c3c(c4oc(=O)cc(CCC(F)(F)F)c4c2O1)C(=O)CC(C)O3 (stereo unspecified)	53.6%	–	–
CCCc1cc(=O)oc2c1c1c(c3occc(=O)c32)C=CC(C)(C)O1	64.9%	–	–
CCc1cc(=O)oc2c3c(c4c(c12)OC(c1ccccc1)C=C4)OC(C)CC3=O (stereo unspecified)	96.4%	10%	–
CCCc1cc(=O)oc2c3c(c4c(c12)OC(CCC)C=C4)OC(C)CC3=O (stereo unspecified)	54.1%	–	–
CCCCCC1CC(=O)c2c(c3c(c4c(CCC)cc(=O)oc24)OC(C)(C)C=C3)O1 (stereo unspecified)	46.4%	< 10%	–
C/C=C/C1C=Cc2c3c(c4oc(=O)cc(CC)c4c2O1)C(=O)CC(C)O3 (stereo unspecified)	56.4%	–	–
CCCC1C=Cc2c3c(c4oc(=O)cc(CC)c4c2O1)C(=O)CC(C)O3 (stereo unspecified)	97%	10%	–
CCCc1c(F)c(=O)oc2c3c(c4c(c12)OC(C)(C)C=C4)OC(C)CC3=O (stereo unspecified)	45.3%	10%	–
CCc1c(F)c(=O)oc2c3c(c4c(c12)OC(C)(C)C=C4)OC(C)CC3=O (stereo unspecified)	–	10%	–
CCCc1cc(=O)oc2c3c(c4c(c12)OC(C)(C)C=C4)OC(CCC)CC3=O (stereo unspecified)	61.9%	< 10%	EC50 [3]: 32.5 nM; selectivity ratio [4]: 102
C/C=C/C1C=Cc2c3c(c4oc(=O)c(F)c(CC)c4c2O1)C(=O)CC(C)O3 (stereo unspecified)	46.2%	–	–
CCCc1cc(=O)oc2c3c(c4c(c12)OC(C)C=C4)OCC(C)C3=O (stereo unspecified)	62.4%	10%	–
C/C=C/C1C=Cc2c3c(c4oc(=O)c(Cl)c(CCC)c4c2O1)C(=O)CC(C)O3 (stereo unspecified)	57.3%	–	–
CCCc1c(Cl)c(=O)oc2c3c(c4c(c12)OCC(C)C4OCC)OC(C)CC3=O (stereo unspecified)	51.7%	–	–
CCCCC1C=Cc2c3c(c4oc(=O)cc(CCC)c4c2O1)C(=O)C(C)CO3 (stereo unspecified)	35.2%	< 10%	–
CCCc1cc(=O)oc2c3c(c4c(c12)OC(C)(C)C=C4)OC(c1ccc(C)cc1)CC3=O (stereo unspecified)	57%	–	–
CCCc1cc(=O)oc2c3c(c4c(c12)OC(c1ccccc1[N+](=O)[O-])C=C4)OC(C)CC3=O (stereo unspecified)	52.6%	–	–
CCc1c(F)c(=O)oc2c3c(c4c(c12)OC(C)C=C4)OC(C)CC3=O (stereo unspecified)	39.5%	–	–
CCCc1c(Cl)c(=O)oc2c3c(c4c(c12)OC(c1ccccc1)C=C4)OC(C)CC3=O (stereo unspecified)	96.3%	> 80%	–
CCCc1cc(=O)oc2c3c(c4c(c12)OC(C)(C)C=C4)OCC(C)C3=O (stereo unspecified)	38.9%	10%	–
CCc1cc(=O)oc2c3c(c4c(c12)OC(C)(C)C=C4)OC(C)CC3=O (stereo unspecified)	73.2%	–	EC50 [3]: 270 nM; selectivity ratio [4]: > 1000

Structure (SMILES)	inhibition at 1 µM [1]	Activity [2]	other results
CCCc1cc(=O)oc2c3c(c4c(c12)OC(c1ccccc1)C=C4)OCC(C)C3=O (stereo unspecified)	–	< 10%	–
CCCc1c(Cl)c(=O)oc2c3c(c4c(c12)OCC(C)=C4)OC(C)CC3=O (stereo unspecified)	49.1%	–	–
C/C=C/C1C=Cc2c3c(c4oc(=O)cc(CCC)c4c2O1)C(=O)C(C)CO3 (stereo unspecified)	37.8%	–	–
CCCCc1cc(=O)oc2c3c(c4c(c12)OC(C)C=C4)OC(C)CC3=O (stereo unspecified)	75.4%	–	–
CC1CC(=O)c2c(c3c(c4c5c(c(=O)oc24)CCCC5)OC(C)(C)C=C3)O1 (stereo unspecified)	67%	–	–
CCCCC1C=Cc2c3c(c4oc(=O)cc(CC)c4c2O1)C(=O)CC(C)O3 (stereo unspecified)	96.7%	10%	–
CCCc1c(F)c(=O)oc2c3c(c4c(c12)OCC(C)=C4)OC(C)CC3=O (stereo unspecified)	47.1%	–	–
CCc1cc(=O)oc2c3c(c4c(c12)OC(C)C=C4)OC(C)CC3=O (stereo unspecified)	57.4%	–	–
CCCc1cc(=O)oc2c3c(c4c(c12)OC(c1ccccc1[N+](=O)[O-])CC4OCC)OC(C)CC3=O (stereo unspecified)	61%	< 10%	–
CC1CC(=O)c2c(c3c(c4c(CN5CCN(C)CC5)cc(=O)oc24)OC(C)(C)C=C3)O1 (stereo unspecified)	48.3%	–	–
CC1CC(=O)c2c(c3c(c4c(CCC(F)(F)F)cc(=O)oc24)OC(c2ccccc2)C=C3)O1 (stereo unspecified)	47.6%	–	–
COc1cc(-c2cc(=O)oc3c4c(c5c(c23)OC(C)(C)C=C5)OC(C)CC4=O)cc(OC)c1OC (stereo unspecified)	58%	–	–
CCCc1cc(=O)oc2c3c(c4c(c12)OC(C)(C)C=C4)OC(c1ccccc1)CC3=O (stereo unspecified)	62.7%	< 10%	–
CCCc1c(Cl)c(=O)oc2c3c(c4c(c12)OC(C)C=C4)OC(C)CC3=O (stereo unspecified)	55.7%	–	–
CCCc1c(Cl)c(=O)oc2c3c(c4c(c12)OC(C)(C)C=C4)OC(C)CC3=O (stereo unspecified)	68.1%	–	EC50 [3]: 370 nM; selectivity ratio [4]: 243
CCCc1cc(=O)oc2c3c(c4c(c12)OC(C)(C)C=C4)OC(CBr)CC3=O (stereo unspecified)	93.5%	–	EC50 [3]: 2.85 nM; selectivity ratio [4]: > 10500
CCCc1cc(=O)oc2c3c(c4c(c12)OC(C)(C)C=C4)OC(C)CC3=O (racemic)	73.1%	–	–
CCCc1cc(=O)oc2c3c(c4c(c12)OC(C)(C)C=C4)OC(C)CC3O (racemic)	–	–	EC50 [3]: 310 nM
CCCc1cc(=O)oc2c3c(c4c(c12)OC(C)(C)C=C4)O[C@@H]1CCCC[C@@H]1C3=O (relative stereo)	59.3%	< 10%	–
CCCc1cc(=O)oc2c3c(c4c(c12)OC(C)(C)C=C4)O[C@H]1CCCC[C@@H]1C3=O (relative stereo)	40%	< 10%	–
CCCc1cc(=O)oc2c3c(c4c(c12)OC(C)(C)C=C4)OC(C)(C)CC3=O [114, 10,10-DIMETHYL-11-DEMETHYL-12-OXO CALANOLIDE A]	68.3%	–	EC50 [3]: 640 nM; selectivity ratio [4]: 47
CCCc1cc(=O)oc2c3c(c4c(c12)OC(C)(C)C=C4)O[C@H](C)[C@@H](C)[C@@H]3O [CALANOLIDE A]	–	–	MIC [5]: 3.13 µg/mL (≈ 8.45 µM); EC50 [3]: 100 nM
